# According to patent publication US20130065227A1, “METHODS OF INCREASING MACROPINOCYTOSIS IN CANCER CELLS” (priority 2010, published 2013):
# {Fluor} = fluorophore: 5-carboxyfluorescein (FAM) or Alexa Fluor 488
# Key:
# Assay type in all cases: cell-based
# [1] = test system: cancer cells (DU145, HeLa, MDA-MB-231) and non-malignant Hs27 skin fibroblasts; assay: Temperature-dependence of oligonucleotide uptake by flow cytometry; settings: 10 μM, 37° C. or 4° C. for 2 h, all cell types
# Experimental: FIG. 1 are graphs showing that AS1411 cell internalization is an active process. Cells were plated 18 h before uptake analysis. After incubation as described, cells were washed with ice-cold PBS, incubated with 1 μg/ml 7-AAD, harvested and resuspended in 1% paraformaldehyde containing 2 μg/ml actinomycin D, then analyzed by flow cytometry. (Panel A) DU145 cells were incubated at 37° C. with fresh complete DMEM medium containing 10 μM FL-AS1411 (black line) or 10 μM FL-CRO (gray line) for the time indicated. (Panel B) DU145 cells were incubated for 2 h at 37° C. in complete or serum-free DMEM medium containing 10 μM FL-AS1411, or 10 μM FL-CRO, or no oligonucleotide. (Panel C) Various cell lines were incubated with 10 μM FL-AS1411 (black outline histogram), 10 μM FL-CRO (gray outline histogram) or without DNA (solid gray histogram) at 37° C. or 4° C. for 2 h. All experiments were repeated at least three times. Data are mean of three independent samples; bars, SE; *(p<0.05). […]
# To determine whether AS1411 uptake occurs through an active uptake process, the temperature-dependence of AS1411 uptake in cancer cells (DU145, HeLa, MDA-MB-231) and non-malignant Hs27 skin fibroblasts was evaluated using flow cytometry. […]
# Cells = assay: Antiproliferative MTT assay (FIG. 7)
# Experimental: FIG. 7 are graphs showing the results of comparative experiments. (Panel A) Cells were plated in 96-well plates at low density (1,000 cells per well) and incubated 18 hrs at 37° C. to allow adherence. Cells were treated by addition of different concentrations of AS1411 (obtained from Antisoma), AS1411 (obtained from Invitrogen), tAS1411, FL-AS1411, CRO, or tCRO directly to the medium, and proliferation was measured using a 3-(4,5-dimethylthiazol-2-yl)-2,5-diphenyltetrazolium bromide assay as described previously (Bates et al., 1999, J. Biol. Chem., 274:26369-77). Points represent mean of triplicate samples with SE. (Panel B) 10 μM FL-AS1411 or 10 μM FL-CRO were added to DU145 cells plated on 6-well plates. After incubation at 37° C. for 2 hrs, cells were washed twice with ice-cold PBS and harvested by trypsin treatment. Some cells were washed twice with ice-cold PBS containing dextran sulfate ([…]) or trypan blue ([…], pH 4.4). Cells were resuspended in ice-cold PBS and immediately analyzed by flow cytometry.
# Oligodeoxynucleotides were purchased from Invitrogen (Carlsbad, Calif.). […]
# RWPE1 = assay: Cell response to AS1411; settings: Non-cancer, prostate epithelial
# Text: (§1) It has recently been discovered that AS1411 can stimulate macropinocytosis (MP) in cancer cells and this finding was verified by several different methods and in multiple cancer cell lines (Table 1).
# CHO = assay: Cell response to AS1411; settings: Non-cancer, hamster ovary
# Text: as §1
# BEAS2B = assay: Cell response to AS1411; settings: Non-cancer, lung epithelial
# Text: as §1
# DU145 cells = assay: Uptake of fluorescently labeled duplex siRNA after AS1411 pre-treatment; settings: 10 μM, 48 h
# Text: FIG. 18 is a graph showing the uptake of siRNA in the presence of AS1411.
# Furthermore, due to the unique properties of MPsomes, delivery by MP leads to increased functional activity. Thus, treatment with AS1411, followed by administration of an anticancer siRNA, for example, leads to a synergistic increase in anticancer effects without harming normal cells. Another strategy to potentiate the effects of AS1411 is to combine it with agents that promote MP and activation of Rac. This leads to increased macropinocytic uptake of AS1411 and/or enhanced methuosis.
Substance,temperature dependence of uptake [1],antiproliferative activity (Cells),Cells respond? (RWPE1),Cells respond? (CHO),Cells respond? (BEAS2B),siRNA delivery after pre-treatment (DU145 cells)
"5′-Fluor-d(TTTCCTCCTCCTCCTTCTCCTCCTCCTCC) (DNA TTTCCTCCTCCTCCTTCTCCTCCTCCTCC; DNA, 5' {Fluor}, backbone and methylation of C not given here) [FL-CRO, reference compound]",strong temperature dependence,no antiproliferative activity,–,–,–,–
5′-d(GGTGGTGGTGGTTGTGGTGGTGGTGG) [AS1411],–,–,No,No,No,substantial increase in siRNA delivery
